Assay results reported in ChEMBL document CHEMBL1201862, “PubChem BioAssay data set” (2004).
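Protocol summary: plate cells (96-well), add compound at 5 concentrations, incubate 48 h, interpolate endpoints linearly. GI50 is the concentration that inhibits growth by half.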 Activity calls are given as the source filed them. No stated cut-off is given here; in the data, active = GI50 up to about 1.1 µM and inactive = higher.

Tests used:
Assay in all cases: DTP human tumour cell line panel, 48 h
[1] = tested on: CAKI-1
[2] = tested on: COLO 205
[3] = tested on: HCT-116
[4] = tested on: HT-29
[5] = tested on: IGROV-1
[6] = tested on: K562
[7] = tested on: LOX IMVI
[8] = tested on: M14
[9] = tested on: Malme-3M
[10] = tested on: NCI-H460
[11] = tested on: OVCAR-3
[12] = tested on: OVCAR-4
[13] = tested on: OVCAR-5
[14] = tested on: OVCAR-8
[15] = tested on: SK-MEL-5
[16] = tested on: T47D
[17] = tested on: U-251
[18] = tested on: UACC-62
[19] = tested on: SNB-19
[20] = tested on: RPMI-8226

Measured: GI50

OC1CC(O)c2c(Cl)sc(Cl)c21 (configuration not stated)
inactive: [1] 31.5 µM | [2] 18.2 µM | [3] 31.4 µM | [4] 17.5 µM | [5] > 100 µM | [6] 62.8 µM | [7] 52.6 µM | [8] 35.2 µM | [9] 36.3 µM | [10] 21.8 µM | [11] 14.8 µM | [12] 8.79 µM | [13] 28.8 µM | [14] 41.5 µM | [15] 47 µM | [16] 26.9 µM | [17] 15.5 µM | [18] 42.8 µM

O=C(c1ccco1)C1CC(c2ccc3ccccc3c2O)=NN1c1ccc([N+](=O)[O-])cc1[N+](=O)[O-] (configuration not stated)
inactive: [1] 33.5 µM | [2] 16.3 µM | [3] 23.1 µM | [4] 13.7 µM | [5] 14 µM | [8] 22.9 µM | [9] 37 µM | [10] 10.5 µM | [11] 28.1 µM | [12] 15.6 µM | [13] 16 µM | [14] 23.8 µM | [16] 31.9 µM | [17] 28.4 µM | [18] 17.6 µM

CCN1C[C@]2(COC)[C@H](O)C[C@H](OC)[C@]34C1[C@H]([C@H](OC)[C@H]23)[C@]1(OC(C)=O)[C@H]2[C@@H](OC(=O)c3ccccc3)[C@](O)(C[C@H]24)[C@@H](OC)[C@@H]1O
inactive: [1] > 100 µM | [2] > 100 µM | [3] > 100 µM | [4] > 100 µM | [5] > 100 µM | [6] > 100 µM | [7] > 100 µM | [8] > 100 µM | [9] > 100 µM | [10] > 100 µM | [12] > 100 µM | [13] > 100 µM | [14] > 100 µM | [15] > 100 µM | [19] > 100 µM | [16] > 100 µM | [17] > 100 µM | [18] > 100 µM

Nc1ccnc2c1ncn2[C@H]1C[C@H](O)[C@@H](CO)O1
inactive: [1] > 100 µM | [2] > 100 µM | [3] > 100 µM | [4] > 100 µM | [5] > 100 µM | [7] > 100 µM | [8] > 100 µM | [10] > 100 µM | [11] > 100 µM | [12] > 100 µM | [13] > 100 µM | [14] > 100 µM | [15] > 100 µM | [19] > 100 µM | [16] > 100 µM | [17] > 100 µM | [18] > 100 µM

O=C(CSc1nccc(=O)[nH]1)c1ccccc1
inactive: [1] > 100 µM | [2] > 100 µM | [3] > 100 µM | [4] > 100 µM | [5] > 100 µM | [6] > 100 µM | [7] 78.3 µM | [8] > 100 µM | [9] 82.4 µM | [10] 80.5 µM | [11] 40.7 µM | [12] > 100 µM | [13] > 100 µM | [14] > 100 µM | [15] > 100 µM | [19] > 100 µM | [16] > 100 µM | [17] > 100 µM | [18] 46.2 µM

COP(=O)(C(/C=C/c1ccccc1)OC(C)=O)[C@@H]1CCCC[C@H]1N(CC(C)(C)C)C(C)=O (some centres not stated)
inactive: [1] 28 µM | [2] 13.9 µM | [3] 10.9 µM | [4] 10.2 µM | [5] 10.6 µM | [6] 22.4 µM | [7] 15.8 µM | [8] 14.4 µM | [9] 18.2 µM | [10] 13.4 µM | [11] 14.5 µM | [12] 5.62 µM | [13] 19.2 µM | [14] 16.8 µM | [15] 14 µM | [19] 29 µM | [16] 5.87 µM | [17] 15.8 µM | [18] 14 µM

C[N+](C)([O-])Cc1cc(-c2ccccc2)ccc1O
inactive: [1] > 100 µM | [3] > 100 µM | [4] > 100 µM | [5] > 100 µM | [6] > 100 µM | [7] > 100 µM | [8] > 100 µM | [9] > 100 µM | [10] 72.8 µM | [11] > 100 µM | [12] > 100 µM | [13] > 100 µM | [15] > 100 µM | [19] > 100 µM | [16] > 100 µM | [17] > 100 µM | [18] > 100 µM

NC1C2C(CC(=O)O)OCC=C3CN4CCC1(C(=O)C(=O)O)C4CC32 (configuration not stated)
inactive: [1] > 100 µM | [2] > 100 µM | [3] > 100 µM | [4] > 100 µM | [5] > 100 µM | [6] > 100 µM | [7] > 100 µM | [8] > 100 µM | [9] > 100 µM | [10] > 100 µM | [11] > 100 µM | [12] > 100 µM | [13] > 100 µM | [14] > 100 µM | [15] > 100 µM | [19] > 100 µM | [16] > 100 µM | [17] > 100 µM | [18] > 100 µM

O=C(O)[C@H](NS(=O)(=O)c1ccc([N+](=O)[O-])cc1)c1ccccc1
inactive: [1] > 100 µM | [2] > 100 µM | [3] > 100 µM | [4] > 100 µM | [5] > 100 µM | [6] > 100 µM | [7] > 100 µM | [8] > 100 µM | [9] > 100 µM | [10] > 100 µM | [11] > 100 µM | [12] > 100 µM | [13] > 100 µM | [14] > 100 µM | [20] > 100 µM | [15] > 100 µM | [19] > 100 µM | [17] > 100 µM | [18] > 100 µM

CC(=O)CC1=C(OC(C)C)C2(OCCO2)C1O (configuration not stated)
inactive: [1] > 100 µM | [2] > 100 µM | [3] > 100 µM | [4] > 100 µM | [5] > 100 µM | [7] > 100 µM | [8] > 100 µM | [9] > 100 µM | [10] > 100 µM | [11] > 100 µM | [12] > 100 µM | [13] > 100 µM | [14] > 100 µM | [15] > 100 µM | [19] > 100 µM | [16] > 100 µM | [17] > 100 µM | [18] > 100 µM

CCCSc1cc(Cl)c(C)cc1S(=O)(=O)n1ccnc1O
inactive: [1] > 100 µM | [2] > 100 µM | [3] > 100 µM | [4] > 100 µM | [5] > 100 µM | [6] > 100 µM | [7] > 100 µM | [8] > 100 µM | [9] > 100 µM | [10] > 100 µM | [11] > 100 µM | [12] > 100 µM | [13] > 100 µM | [14] > 100 µM | [15] > 100 µM | [19] > 100 µM | [16] > 100 µM | [17] > 100 µM | [18] > 100 µM

C=C(C)CC1(O)C(=O)C(OCC)=C1OCC (configuration not stated)
inactive: [1] > 100 µM | [2] > 100 µM | [3] > 100 µM | [4] > 100 µM | [5] > 100 µM | [7] > 100 µM | [8] > 100 µM | [9] 48.1 µM | [10] > 100 µM | [11] > 100 µM | [12] > 100 µM | [13] > 100 µM | [14] > 100 µM | [15] > 100 µM | [19] > 100 µM | [16] > 100 µM | [17] > 100 µM | [18] > 100 µM

C=C1CCC2C(C)(CO)C(O)CCC2(C)C1CC(O)C1=CCOC1=O (configuration not stated)
inactive: [1] 78 µM | [2] 38.5 µM | [3] 26.5 µM | [4] 35.7 µM | [5] 61.1 µM | [6] 34.1 µM | [7] 33.5 µM | [8] 47.3 µM | [9] > 100 µM | [10] 49.9 µM | [11] 26.5 µM | [12] 61.1 µM | [13] > 100 µM | [14] 36.1 µM | [20] > 100 µM | [15] 77.1 µM | [19] > 100 µM | [17] 17.3 µM | [18] > 100 µM

CCOc1ncn(-c2ccc(NC(=S)NC3OC(CO)C(O)C(O)C3O)cc2)n1 (configuration not stated)
inactive: [2] > 100 µM | [3] > 100 µM | [4] > 100 µM | [5] > 100 µM | [6] > 100 µM | [7] > 100 µM | [8] > 100 µM | [10] > 100 µM | [11] > 100 µM | [12] > 100 µM | [13] > 100 µM | [14] > 100 µM | [20] > 100 µM | [15] > 100 µM | [19] > 100 µM | [16] > 100 µM | [17] > 100 µM | [18] > 100 µM

[O-][N+]1=C(c2ccccc2)COc2ccccc21
inactive: [1] > 100 µM | [2] > 100 µM | [3] > 100 µM | [4] > 100 µM | [5] > 100 µM | [6] > 100 µM | [7] 96.4 µM | [8] > 100 µM | [9] > 100 µM | [10] > 100 µM | [11] > 100 µM | [12] > 100 µM | [13] > 100 µM | [14] > 100 µM | [20] 67.5 µM | [15] > 100 µM | [19] > 100 µM | [17] > 100 µM | [18] > 100 µM
